PubChem BioAssay (NCI)
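The compound was tested at five concentrations on cells cultured in 96-well plates, with a 48-hour exposure period. At the GI50, growth is halved. TGI: concentration producing complete growth inhibition.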

Experiments:
Experiment in all cases: growth of human tumour cells (NCI), 48 h
[1] = system: 786-0 renal
[2] = system: A498 renal
[3] = system: A549 NSCLC
[4] = system: ACHN renal
[5] = system: BT-549 breast
[6] = system: CAKI-1 renal
[7] = system: CCRF-CEM leukemia
[8] = system: COLO 205 colon
[9] = system: DU-145 prostate
[10] = system: EKVX NSCLC
[11] = system: HCC-2998 colon
[12] = system: HCT-116 colon
[13] = system: HCT-15 colon
[14] = system: HL-60(TB) leukemia
[15] = system: HOP-62 NSCLC
[16] = system: HOP-92 NSCLC
[17] = system: HS 578T breast
[18] = system: HT29 colon
[19] = system: IGROV1 ovarian
[20] = system: K-562 leukemia
[21] = system: KM12 colon
[22] = system: LOX IMVI melanoma
[23] = system: M14 melanoma
[24] = system: MALME-3M melanoma
[25] = system: MCF7 breast
[26] = system: MDA-MB-231 breast
[27] = system: MDA-MB-435
[28] = system: MDA-MB-468 breast
[29] = system: MOLT-4 leukemia
[30] = system: NCI-H226 lung
[31] = system: NCI-H23 lung
[32] = system: NCI-H460 lung
[33] = system: NCI-H522 lung
[34] = system: NCI/ADR-RES ovarian
[35] = system: OVCAR-3 ovarian
[36] = system: OVCAR-4 ovarian
[37] = system: OVCAR-5 ovarian
[38] = system: OVCAR-8 ovarian
[39] = system: PC-3 prostate
[40] = system: RPMI-8226 leukemia
[41] = system: RXF 393 renal
[42] = system: SF-268 CNS
[43] = system: SF-295 CNS
[44] = system: SF-539 CNS
[45] = system: SK-MEL-2 melanoma
[46] = system: SK-MEL-28 melanoma
[47] = system: SK-MEL-5 melanoma
[48] = system: SK-OV-3 ovarian
[49] = system: SN12C renal
[50] = system: SNB-19 CNS
[51] = system: SNB-75 CNS
[52] = system: SR leukemia
[53] = system: SW-620 colon
[54] = system: T-47D breast
[55] = system: TK-10 renal
[56] = system: U251 CNS
[57] = system: UACC-257 melanoma
[58] = system: UACC-62 melanoma
[59] = system: UO-31 renal

For `O=C(N/N=C/c1ccc(Cl)cc1)c1ccc(OCc2nc3ccc(Cl)cc3[nH]2)cc1`, the GI50 [1] was 4.34 µM, the TGI [1] was 16.9 µM and the GI50 [2] was 21.4 µM. The TGI [2] was 38.4 µM, the GI50 [3] was 12 µM and the TGI [3] was 34.2 µM. For the same compound, the GI50 [4] was 14.3 µM, the TGI [4] was 27.8 µM and the GI50 [5] was 19.5 µM. The TGI [5] was 41.6 µM, the GI50 [6] was 17 µM and the TGI [6] was 34 µM. For the same compound, the GI50 [7] was 6.78 µM, the TGI [7] was 37.1 µM and the GI50 [8] was 15.3 µM. The TGI [8] was 32.1 µM, the GI50 [9] was 10.8 µM and the TGI [9] was 25.3 µM. It also gave a GI50 [10] of 14.9 µM, a TGI [10] of 28.9 µM and a GI50 [11] of 11.5 µM. The TGI [11] was 25.8 µM, the GI50 [12] was 4.46 µM and the TGI [12] was 19.2 µM. The GI50 [13] was 8.27 µM, the TGI [13] was 21.9 µM and the GI50 [14] was 26.4 µM. For the same compound, the TGI [14] was > 100 µM, the GI50 [15] was 15.7 µM and the TGI [15] was 31.6 µM. The GI50 [16] was 13.4 µM, the TGI [16] was 30.8 µM and the GI50 [17] was 11.2 µM. It also gave a TGI [17] of 50.9 µM, a GI50 [18] of 15.2 µM and a TGI [18] of 45.5 µM. It also gave a GI50 [19] of 11.6 µM, a TGI [19] of 24.2 µM and a GI50 [20] of 3.81 µM. For the same compound, the TGI [20] was 21.3 µM, the GI50 [21] was 20.5 µM and the TGI [21] was 66 µM. It also gave a GI50 [22] of 6.22 µM, a TGI [22] of 19.1 µM and a GI50 [23] of 10.2 µM. For the same compound, the TGI [23] was 25.3 µM, the GI50 [24] was 11.7 µM and the TGI [24] was 24.5 µM. For the same compound, the GI50 [25] was 10 µM, the TGI [25] was 23.2 µM and the GI50 [26] was 10.8 µM. It also gave a TGI [26] of 23.2 µM, a GI50 [27] of 14.6 µM and a TGI [27] of 31 µM. It also gave a GI50 [28] of 11.6 µM, a TGI [28] of 24.4 µM and a GI50 [29] of 7.51 µM. It also gave a TGI [29] of 27.3 µM, a GI50 [30] of 14.1 µM and a TGI [30] of 30.2 µM. It also gave a GI50 [31] of 6.59 µM, a TGI [31] of 19.7 µM and a GI50 [32] of 4.68 µM. For the same compound, the TGI [32] was 16.8 µM, the GI50 [33] was 19.7 µM and the TGI [33] was 41.6 µM. For the same compound, the GI50 [34] was 15.9 µM, the TGI [34] was 68 µM and the GI50 [35] was 18 µM. It also gave a TGI [35] of 42.3 µM, a GI50 [36] of 15.5 µM and a TGI [36] of 31.4 µM. For the same compound, the GI50 [37] was 14.5 µM, the TGI [37] was 32.7 µM and the GI50 [38] was 18.1 µM. The TGI [38] was 55.5 µM, the GI50 [39] was 7.48 µM and the TGI [39] was 24.9 µM. The GI50 [40] was 16.6 µM, the TGI [40] was > 100 µM and the GI50 [41] was 10.5 µM. It also gave a TGI [41] of 24.4 µM, a GI50 [42] of 21.2 µM and a TGI [42] of 53.5 µM. For the same compound, the GI50 [43] was 12 µM, the TGI [43] was 24.4 µM and the GI50 [44] was 16.6 µM. For the same compound, the TGI [44] was 30.6 µM, the GI50 [45] was 18.6 µM and the TGI [45] was 40 µM. It also gave a GI50 [46] of 12.5 µM, a TGI [46] of 25.3 µM and a GI50 [47] of 15.1 µM. For the same compound, the TGI [47] was 30.1 µM, the GI50 [48] was 16 µM and the TGI [48] was 32.8 µM. It also gave a GI50 [49] of 12.7 µM, a TGI [49] of 25.8 µM and a GI50 [50] of 15.4 µM. It also gave a TGI [50] of 29.5 µM, a GI50 [51] of 5.23 µM and a TGI [51] of 19.8 µM. The GI50 [52] was 0.62 µM, the TGI [52] was > 100 µM and the GI50 [53] was 6.79 µM. For the same compound, the TGI [53] was 23 µM, the GI50 [54] was 19.3 µM and the TGI [54] was 42.9 µM. For the same compound, the GI50 [55] was 19.5 µM, the TGI [55] was 38.3 µM and the GI50 [56] was 14.2 µM. It also gave a TGI [56] of 33.1 µM, a GI50 [57] of 21.1 µM and a TGI [57] of 46.6 µM. For the same compound, the GI50 [58] was 12.6 µM, the TGI [58] was 25.4 µM and the GI50 [59] was 13.1 µM. It also gave a TGI [59] of 26.3 µM.
